According to patent publication US8911953B2, “TDF-related compounds and analogs thereof, analogs and bioactive fragments” (Thrasos Innovation, Inc., priority 2005, dated 2014):
“Also recorded” adds a separate entry of the source. Positions of bridges follow the written chain, without caps; N, C: chain ends. No end group written: not given here.

Experiments:
NTN mice = test: Nephrotoxic serum nephritis (NTN) model of chronic renal failure; format: in vivo, mouse; conditions: oral 5 mg/kg/24 hr, weeks 6-9
Excerpt: Attenuation of renal fibrosis progression by TDFRP compound in the chronic renal failure mouse model, nephrotoxic serum nephritis (NTN). A: NTN Model Experimental Protocol. Nephrotoxic serum was given intravenously on Day 0 (D0) and animals were sacrificed either at 6 weeks or 9 weeks. Two different drug regimens were used: treatment from weeks 1-6 or from weeks 6-9. B: Kidney section of 6-9 week, vehicle-treated […] animal, C: Kidney section of animal received oral administration of TDFRP compound (SEQ ID NO 45) (5 mg/kg/24 hr) from weeks 6-9.
Renal fibrosis involves interestitial fibrosis, tubular atrophy, and glomerulosclerosis. The mouse nephrotoxic serum nephritis (NTN) renal fibrosis model mimics human chronic renal injury. NTN mice develop glomerulonephritis following injection with nephrotoxic serum (NTS), which progresses to tubulointerstitial disease and eventually renal fibrosis after 6 weeks (see Lloyd, et al. (1997) J. Exp. Med. 185, 1371-1380.; Zeisberg et al. (2003) Nat. Med. 9, 964-968.)
Nephrotoxic serum nephritis (NTN) is a model of progressive chronic renal injury. Mice given injections of nephrotoxic serum (NTS) develop glomerulonephritis, leading to tubulointerstitial disease associated with EMT, and ultimately renal fibrosis, over a period of about six weeks. […] In these studies, BMP-7 was able to restore expression of E-cadherin proteins in previously damaged tubules. […] For a review of the above see, Zeisberg et al., Nature Medicine, 9; 7 pp 964-968, (2003) and Kalluri et al., J. Clin Investigation 112:1776-1784 (2003).

HK-2 cells = test: Cisplatin-induced apoptosis in HK-2 cells (Annexin V staining); format: cell-based, human; conditions: 10 uM cisplatin, 500 uM compound, prophylactic or therapeutic
Protocol: Apoptosis and cell viability are quantified using AnnexinV-FITC and propidium iodide staining of HK-2 cells following cisplatin treatment. Immortalized PTEC-derived HK-2 cells (ATCC number CRL-2190) are cultured in serum-free keratinocyte medium (GIBCO number 17005-042) supplemented with EGF and BPE for 48 hours (Ryan et al. 1994 Kidney Int 45:48-57). Medium is aspirated and cells are washed with PBS and incubated in the dark for 15 min at room temperature with 10 μl of media binding agent and 1.25 μl of FITC conjugated AnnexinV. Propidium iodide (10 μl) is added, and samples are analyzed immediately. Quantification of Annexin V-FITC and propidium iodide signals is performed by fluorescence microscopy (Axiovert 135; Carl Zeiss). Phase contrast images are observed using transmitted light. Apoptotic cells show cytoplasmic staining and viable cells remain unstained (FIG. 17).

[1] = tested on: cisplatin-treated Sprague-Dawley rats; test: Rat cisplatin model of acute kidney injury; format: in vivo; conditions: for ICAM-1 in kidney sections: anti-ICAM-1 staining; for ICAM-1 in kidney sections / proliferating cells / cellular regeneration (PCNA) / macrophages accumulating in the kidneys: b674: 2.8 mg/kg bw; for proliferating cells / cellular regeneration (PCNA): anti-PCNA staining; for macrophages accumulating in the kidneys: macrophage-specific marker
Excerpt: The rat cisplatin model has been studied extensively and is considered a relevant model for human acute kidney injury. Kidneys from cisplatin-treated animals show little evidence of cell proliferation. In contrast, animals that are protected or are able to recover from the nephrotoxic effects of cisplatin treatment show proliferation as detected by anti-proliferating cell nuclear antigen or PCNA antibodies. This model provides a mechanism for identifying agents that can protect the kidney from inflammatory cytokine-mediated injury, as well as, in repairing organ damage. Macrophages infiltrate the kidneys of animals treated with cisplatin and this early marker of nephropathy can be detected using anti CD-68 antibodies. Agents that decrease the number of macrophages in kidneys and prevent inflammatory cell-mediated damage associated with cisplatin treatment can be detected using immuno-histological analysis. Kidney sections treated with agents that show increased expression of α-actin in smooth muscle cells (SMC) are indicative of protecting the in integrity of SMC and alleviating injurious damage to the kidney.
Male Sprague-Dawley rats (˜250 gm) are injected ip with 5 mg/kg cisplatin (1 mg/ml in water) at time zero to induce acute renal failure. In this model, clinical signs (rise in serum creatinine) peaks at 4 to 5 days. The test compound and control substances were administered iv via the tail vein as 0.5 ml slow bolus injections. The negative control substance was the vehicle (PBS pH 7.2+5% Mannitol), while the positive control therapy was recombinant human mature BMP-7 (BMP-7 or TDF-1). The end points are serum creatinine and BUN levels and histology.
TDFRP Compound (SEQ ID NO:45) was tested in male Sprague-Dawley rats (250 gm to 300 gm) to establish the dose range and the extent to which the compound is able to prophylactically and therapeutically ameliorate the renal toxic effects of cisplatin. The cisplatin dosing level was the chemotherapeutic level used in humans, 40 ug/kg bw. The end points were the level of creatinine in serum and kidney histology. […]
A stock solution (70 mg/ml) of TDFRP (SEQ ID NO:45) was made by dissolving it in 20 mM Acetate (ph 4.2). The stock solution was further diluted into phosphate buffered saline (PBS, pH 7.2) plus 5% Mannitol to compound concentrations of 14 mg/ml (28 mg/kg dose), 1.4 mg/ml (2.8 mg/kg dose) and 0.14 mg/ml (0.28 mg/kg dose).
Cisplatin was administered via i.p. injection (40 ug/kg bw) at time zero. Administration of therapeutic dosing of the compound, the BMP-7 positive control and vehicle negative control were by slow bolus i.v. injection through the tail vein at five time points: 2 hours before the administration of cisplatin, then at 24 hours, 48 hours, 72 hours and 96 hours post cisplatin administration. Blood samples were collected through the tail vein at time points of 0, 24, 48, 72 and 96 hours. At seven day sample was collected by exsanguination at sacrifice. Serum was prepared from the blood samples and analyzed for creatinine concentration. The serum concentration of creatinine, a byproduct of muscle activity that is released into the blood stream and cleared through the kidneys, is a marker of kidney function that tends to rise when kidney function becomes severely compromised (FIG. 21).
Upon sacrifice at seven days, the kidneys were harvested, fixed in formalin and imbedded in paraffin. They were then sagitally sectioned and stained in H&E stain. Kidney sections were also stained with anti-bodies against proliferating cell nuclear antigen (PCNA) (to identify sites of cell regeneration), macrophages, I-CAM-1, and smooth muscle. Also collected at sacrifice were tissues at and around the injection site (FIGS. 22, 25, 26).

## CYFDDSSNVLCKKYRS (disulfide 1-11 (inferred); not fully specified) [SEQ ID NO:45]
NTN mice
  glomerulosclerosis: attenuated the severity of glomerulosclerosis
  matrix deposition: attenuated the amount of matrix deposition
  tubular atrophy: attenuated the severity of tubular atrophy
NTN mice; 5 mg/kg
  progression of renal fibrosis: significantly attenuated
HK-2 cells
  cisplatin-induced apoptosis: inhibits
[1]; 2.8 mg/kg b.w.
  tubule structure of the kidney (H&E sections): improved
[1]; 2.8 mg/kg bw
  cisplatin-induced inflammation of the kidney cortex: significantly reduced
  smooth muscle loss: reduced
[1]; 28 mg/kg bw i.v.
  serum creatinine at the highest dose: more efficacious than the positive control; also recorded: return closer to base-line levels
[1]; 0.28, 2.8 and 28 mg/kg bw i.v.
  cisplatin-induced level of creatinine in serum: reduces
[1]
  ICAM-1 in kidney sections: reduced
  proliferating cells / cellular regeneration (PCNA): increased the degree of cellular regeneration
  macrophages accumulating in the kidneys: reduced
[1]; listed as SEQ ID NO 45
  ICAM-1 in kidney sections: less ICAM-positive material
  proliferating cells / cellular regeneration (PCNA): Proliferating cells are observed
  macrophages accumulating in the kidneys: less macrophages
[1]; rat, in vivo
  nephrotoxic effects of cisplatin exposure: reduce or ameliorate
  renal tubular morphology (tubular atrophy, necrosis and dilation): improved the morphology and structure of the kidney tubules

B1: BMP-7: recombinant human mature BMP-7 (BMP-7 or TDF-1), positive control therapy (protein)
chain: STGSKQRSQNRSKTPKNQEALRMANVAENSSSDQRQACKKHELYVSFRDLGWQDWIIAPEGYAAYYCEGECAFPLNSYMNATNHAIVQTLVHFINPETVPKPCCAPTQLNAISVLYFDDSSNVILKKYRNMVVRACGCH
[1]; BMP-7 30 ug/kg bw and 200 ug/kg bw
  peak serum creatinine levels in response to cisplatin: lower peak serum creatinine levels
[1]; rat, in vivo
  renal tubular morphology (tubular atrophy, necrosis and dilation): Improvement of Renal Tubular Morphology
